This note sets out measurements from patent US7173037B2, “Carbamate-substituted pyrazolopyridines” (Bayer HealthCare AG, priority 2002, dated 2007).

The test system of one data set is rabbit aorta rings. Briefly: Vasorelaxant effect in vitro (phenylephrine-contracted aorta rings). The format is cell-based. The note with it: Oryctolagus cuniculus, phenylephrine contraction, read-out: IC50 (concentration necessary to reduce the height of the contraction by 50%). On the procedure:
Rabbits are stunned by a blow to the back of the neck and are exsanguinated. The aorta is removed, freed of adherent tissue and divided into rings 1.5 mm wide, which are put singly under tension in 5 ml organ baths containing carbogen-gassed Krebs-Henseleit solution at 37° C. with the following composition (mM): NaCl:119; KCl:4.8; CaCl2×2H2O:1; MgSO4×7H2O:1.4; KH2PO4:1.2; NaHCO3:25; Glucose:10. The force of contraction is detected with Statham UC2 cells, amplified and digitized via A/D converters (DAS-1802 HC, Keithley Instruments Munich) and recorded in parallel on chart recorders. A contraction is generated by adding phenylephrine to the bath cumulatively in increasing concentration. After several control cycles, the substance to be investigated is investigated in each further run in increasing dosage in each case, and the height of the contraction is compared with the height of the contraction reached in the last preceding run. The concentration necessary to reduce the height of the control value by 50% (IC50) is calculated from this. The standard application volume is 5 μl, and the DMSO content in the bath solution corresponds to 0.1%.

Data set [1] deals with CYP2B6. The note with it: human, hepatocytes, 5 days.
On the set-up of data set [2]: species or system rats. The note with it: rat, in vivo, po. On the procedure: The substance to be investigated is administered intravenously as solution to animals (e.g. mice, rats, dogs), and oral administration takes place as solution or suspension by gavage. After administration of the substance, blood is taken from the animals at fixed times and is heparinized, and then plasma is obtained therefrom by centrifugation. The substance is quantified analytically in the plasma by LC/MS/MS. The plasma concentration/time courses found in this way are used to calculate the pharmacokinetic parameters by means of a validated pharmacokinetic computer programme.
Inhibition of Cytochrome P450 Enzymes

The test system of the next data set is CYP1A2. Description: Induction of cytochrome P450 enzymes in human liver cell cultures, CYP1A2. It counts as in vitro ADME. The note with it: human hepatocyte cultures, control = 1.0.
The subject of the next data set is CYP3A4. The note with it: human, hepatocytes.
For data set [3], the system named is CYP2C19. The note with it: human, hepatocytes, 5 days.
The next data set has as its system rabbit penis erection. Description: Rabbit model (erection, length of the protruding penis). The settings on record: oral administration, with simultaneous 0.2 mg/kg i.v. sodium nitroprusside SNP. It counts as in vivo, chinchilla rabbits. On the procedure: Adult male chinchilla rabbits weighing 3–5 kg are adapted to being kept singly for several days after delivery. They have free access to water and can take feed for two hours a day. The animals are kept in a 10/14-hour day/night rhythm (light on from 8.00 h), and the room temperature is 22–24° C.
Three to six animals are used in each treatment group and are weighed immediately before the start of the test. For the i.v. administration, the substances are dissolved in Transcutol (GATTEFOSSE GmbH) and diluted in the ratio 3/7 with a 20% strength Cremophor solution (Cremophor (BASF), water). A volume of 0.5 ml/kg is injected into the ear vein. Water-soluble substances are injected in 0.9% sodium chloride solution.
For oral administration, the test substances are dissolved in a 6:10:9.69 glycerol:water:polyethylene glycol mixture and administered by gavage in a volume of 1 ml/kg.
Under resting conditions, the rabbit penis is invisible in the pubic region and is completely covered by the penis skin. The erection is assessed by measuring the length of the protruding penis with a slide calliper. […] The animals are for this purpose removed from the cage each time, held firmly by the neck fur and the rear paws, turned on their backs and measured. […]

Data set [4] concerns CYP2C19. Description: Induction of cytochrome P450 enzymes in human liver cell cultures, CYP2C19. The note with it: human hepatocyte cultures, 2000 μM, control = 1.0.
Data set [5] concerns CYP2B6. Description: Induction of cytochrome P450 enzymes in human liver cell cultures, CYP2B6. The settings on record: human hepatocyte cultures, 2000 μM, control = 1.0.

Read-outs that look alike come from different tables or passages of the source.

As for `COC(=O)N(C)c1cnc(-c2nn(Cc3ccccc3F)c3ncccc23)nc1N` [Example 1, Methyl 4-amino-2-[1-(2-fluorobenzyl)-1H-pyrazolo[3,4-b]pyridin-3-yl]-5-pyrimidinyl(methyl)carbamate], the IC50 with rabbit aorta rings is 670 nM.

One may read the minimal effective dose as the lowest level tested that produced the effect sought. Take `COC(=O)N(C)c1c(N)nc(-c2nn(Cc3ccccc3F)c3ncccc23)nc1N` [Example 8, Methyl 4,6-diamino-2-[1-(2-fluorobenzyl)-1H-pyrazolo[3,4-b]pyridin-3-yl]-5-pyrimidinyl(methyl)carbamate]: the IC50 with rabbit aorta rings is 500 nM. The “Inductive effect on CYP2B6 activity (standardized)” value (“Inductive effect on CYP2B6 activity” below) in the data set with CYP2B6 [1] (0.01 μg/ml) stood at 1.92; with CYP2B6 [1] (0.1 μg/ml), 1.62; with CYP2B6 [1] (1 μg/ml) it was 1.85; with CYP2B6 [1] (10 μg/ml), 2.54. Besides, the AUCstand in data set [2] (0.3 mg/kg) came to 0.326 kg·h/L; in data set [2] (1 mg/kg), 0.548 kg·h/L. Moreover, the “Inductive effect on CYP1A2 activity (standardized)” value in the data set with CYP1A2 (0.01 μg/ml) amounted to 0.76; in the data set with CYP1A2 (0.1 μg/ml) it was 0.70; in the data set on CYP1A2 (1.0 μg/ml), 0.90; in the data set with CYP1A2 (10 μg/ml), 1.38. The “Inductive effect on CYP3A4 activity (standardized)” value (“Inductive effect on CYP3A4 activity” for short) with CYP3A4 (5 days, 0.01 μg/ml) worked out at 1.37; in the data set on CYP3A4 (5 days, 0.1 μg/ml), 1.60; in the data set on CYP3A4 (5 days, 1 μg/ml) it was 1.51; in the data set on CYP3A4 (5 days, 10 μg/ml) it was 3.47. Further, the “Inductive effect on CYP2C19 activity (standardized)” value stood at 1.30 with CYP2C19 [3] (0.01 μg/ml), 1.30 in the data set with CYP2C19 [3] (0.1 μg/ml), 1.12 in the data set with CYP2C19 [3] (1 μg/ml) and 1.97 with CYP2C19 [3] (10 μg/ml). Moreover, the minimal effective dose in the data set with rabbit penis erection was found to be 0.03 mg/kg.

On to `COc1ccc2[nH]c([S+]([O-])Cc3ncc(C)c(OC)c3C)nc2c1` (stereo not drawn) [OME, omeprazole, reference compound], for which the “Inductive effect on CYP2B6 activity” value in the data set with CYP2B6 [1] (100 μM) was found to be 1.54. In addition, in the data set on CYP1A2 (100 μM), the “Inductive effect on CYP1A2 activity (standardized)” value was determined as 28.57. Further, the “Inductive effect on CYP3A4 activity” value in the data set on CYP3A4 (5 days, 100 μM) is on record as 1.45. Besides, the “Inductive effect on CYP2C19 activity (standardized)” value with CYP2C19 [3] (100 μM) is listed as 1.61.

Consider `CCC1(c2ccccc2)C(=O)NC(=O)NC1=O` [PB, phenobarbital], for which the “Inductive effect on CYP2C19 activity (standardized)” value in the data set on CYP2C19 [4] is recorded as 4.00. Moreover, the “Inductive effect on CYP2B6 activity” value with CYP2B6 [5] was 14.69. For the same compound, the “Inductive effect on CYP3A4 activity” value with CYP3A4 is 6.70.

In the case of `CO[C@H]1/C=C/O[C@@]2(C)Oc3c(C)c(O)c4c(O)c(c(/C=N/N5CCN(C)CC5)c(O)c4c3C2=O)NC(=O)/C(C)=C\C=C\[C@H](C)[C@H](O)[C@@H](C)[C@@H](O)[C@@H](C)[C@H](OC(C)=O)[C@@H]1C` [RIF, rifampicin, reference compound], the “Inductive effect on CYP2B6 activity” value in the data set on CYP2B6 [1] (50 μM) was determined as 5.15. Further, the “Inductive effect on CYP2C19 activity (standardized)” value in the data set with CYP2C19 [3] (50 μM) worked out at 15.21.
